This is an account of results in patent US20250282736A1, “SMALL MOLECULE MODULATORS OF HUMAN PREGNANE X RECEPTOR” (ST. JUDE CHILDREN'S RESEARCH HOSPITAL, priority 2022, published 2025).

Series [1] concerns the target T1, hPXR (Homo sapiens (Human), UniProt O75469). The series is described as follows: cell-based hPXR inverse agonistic assay. Particulars: for inhibition at 10 µM: read-out: Inverse agonist (% inhibition at 10 μM).
The target in series [2] is T1, hPXR. The series is described as follows: hPXR binding assay. The note with it: for inhibition at 10 µM: read-out: Binding (% inhibition at 10 μM).
In series [3] the target is T1, hPXR. The series is described as follows: cell-based hPXR agonistic assay. The note with it: for Agonist (% activation at 10 μM): rifampicin at 10 μM as 100% activation, DMSO (0.3%) as 0%.
Series [4] has as its target T1, hPXR. The series is described as follows: cell-based hPXR antagonistic assay. The note with it: for inhibition at 10 µM: read-out: Antagonist (% inhibition at 10 μM).
Where [5] appears, read: read-out: Binding (IC50/μM), hPXR binding assay.

T1 sequence (O75469 whole entry): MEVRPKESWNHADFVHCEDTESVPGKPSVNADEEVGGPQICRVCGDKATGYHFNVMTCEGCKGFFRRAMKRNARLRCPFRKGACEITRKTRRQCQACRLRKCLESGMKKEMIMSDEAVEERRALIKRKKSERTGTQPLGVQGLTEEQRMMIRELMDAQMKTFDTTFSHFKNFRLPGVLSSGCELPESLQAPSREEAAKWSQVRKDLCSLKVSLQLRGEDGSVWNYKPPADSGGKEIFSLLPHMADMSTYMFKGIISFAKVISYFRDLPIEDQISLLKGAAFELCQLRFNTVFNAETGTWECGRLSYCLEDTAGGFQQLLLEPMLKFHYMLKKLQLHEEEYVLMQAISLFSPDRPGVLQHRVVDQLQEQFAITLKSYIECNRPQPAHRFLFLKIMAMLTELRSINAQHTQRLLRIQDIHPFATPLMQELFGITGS

Consider `COc1ccc(OC)c(-n2nnc(N(S(=O)(=O)c3ccc(C(C)(C)C)cc3)S(=O)(=O)c3ccc(C(C)(C)C)cc3)c2C)c1` [K8], for which the IC50 in series [1] is above 30000 nM; in series [2] (setting [5]) it was 0.14 µM; in series [4] it was 1450 ± 200 nM. Also, the inhibition at 10 µM was 70% in series [2] and 49% in series [4]. The molecule further registered an EC50 in series [3] of 0.19 µM. Also, in series [3], the “Agonist (% activation at 10 μM)” value was “(21 ± 3)%”.

As to `COc1ccc(OC)c(-n2nnc(C(=O)Nc3cc(OCCOCCOCCOCCNC(=O)CCCC[C@@H]4SC[C@@H]5NC(=O)N[C@@H]54)cc(C(C)(C)C)c3)c2C)c1` [L1], the IC50 in series [1] is above 30000 nM; in series [2], above 30 µM; in series [4], 5440 ± 1000 nM. In addition, the EC50 in series [3] was above 30 µM. Moreover, in series [4], the inhibition at 10 µM amounted to 40%.

Take `CCC[C@H](CC)Oc1ccc(C(C)(C)C)cc1NC(=O)c1nnn(-c2cc(OC)ccc2OC)c1C` [M1, (S)—N-(5-(Tert-Butyl)-2-(Hexan-3-yloxy)Phenyl)-1-(2,5-Dimethoxyphenyl)-5-Methyl-1H-1,2,3-Triazole-4-Carboxamide]: the IC50 in series [1] was determined as 1.1 ± 0.5 nM; in series [2] (setting [5]), 0.015 ± 0.003 µM; in series [4], 6.9 ± 0.5 nM. Further, the inhibition at 10 µM in series [1] came out at 165%; in series [2] it was 93%; in series [4] it was 105%. Besides, in series [3], the EC50 was above 30 µM.

Consider `CCC[C@@H](CC)Oc1ccc(C(C)(C)C)cc1NC(=O)c1nnn(-c2cc(OC)ccc2OC)c1C` [M2, (R)—N-(5-(Tert-Butyl)-2-(Hexan-3-yloxy)Phenyl)-1-(2,5-Dimethoxyphenyl)-5-Methyl-1H-1,2,3-Triazole-4-Carboxamide], for which the IC50 in series [1] is 8.4 ± 4 nM; in series [2] (setting [5]), 0.019 ± 0.003 µM; in series [4], 52 ± 10 nM. Moreover, the inhibition at 10 µM was 130% in series [1], 88% in series [2] and 103% in series [4]. Besides, in series [3], the concentration giving a half-maximal response (EC50) was above 30 µM.

As for `CCC[C@H](CC)Oc1ccccc1NC(=O)c1nnn(-c2cc(OC)ccc2OC)c1C` [M3, (S)-1-(2,5-Dimethoxyphenyl)-N-(2-(Hexan-3-yloxy)Phenyl)-5-Methyl-1H-1,2,3-Triazole-4-Carboxamide], the results for the IC50 in series [1], in series [2] (setting [5]) and in series [4] were 3.4 ± 0.3 nM, 0.013 ± 0.003 µM and 33 ± 4 nM, respectively. In addition, the inhibition at 10 µM in series [1] was 106%; in series [2], 77%; in series [4] it was 107%. This molecule registered an EC50 in series [3] above 30 µM.

As to `CCC[C@H](CC)Oc1ccc(C(=O)OC)cc1NC(=O)c1nnn(-c2cc(OC)ccc2OC)c1C` [M4, Methyl (S)-3-(1-(2,5-Dimethoxyphenyl)-5-Methyl-1H-1,2,3-Triazole-4-Carboxamido)-4-(Hexan-3-yloxy)Benzoate], the IC50 in series [1] was found to be 1 nM; in series [2], 0.003 µM; in series [4], 6 nM. The figures for the inhibition at 10 µM in series [1], in series [2] and in series [4] were 142%, 84% and 112%, respectively. In series [3], this molecule yielded a half-maximal effective concentration (EC50) above 30 µM.

Take `CCC[C@H](CC)Oc1ccc(C(C)(C)C)cc1NC(=O)c1nnn(-c2cc(OC)c(OC)cc2OC)c1C` [M9, (S)—N-(5-(Tert-Butyl)-2-(Hexan-3-yloxy)Phenyl)-5-Methyl-1-(2,4,5-Trimethoxyphenyl)-1H-1,2,3-Triazole-4-Carboxamide]: the IC50 in series [1] was above 30000 nM; in series [2] (setting [5]), 0.0078 ± 0.0001 µM; in series [4], 120 ± 10 nM. Also, the results for the inhibition at 10 µM in series [2] and in series [4] were 91% and 32%, respectively. A half-maximal effect in series [3] (EC50) was put at 0.013 ± 0.01 µM. The “Agonist (% activation at 10 μM)” value in series [3] is “(69 ± 4)%”.

`CCC[C@H](CC)Oc1ccc(C(C)(C)C)cc1NC(=O)c1nnn(-c2cc(OC)c(F)cc2OC)c1C` [M10, (S)—N-(5-(Tert-Butyl)-2-(Hexan-3-yloxy)Phenyl)-1-(4-Fluoro-2,5-Dimethoxyphenyl)-5-Methyl-1H-1,2,3-Triazole-4-Carboxamide]: the IC50 in series [1] came to 4.4 ± 1.5 nM; in series [2] (setting [5]) it was 0.02 ± 0.005 µM; in series [4] it was 23 ± 3 nM. Moreover, the values for the inhibition at 10 µM in series [1], in series [2] and in series [4] were 92%, 92% and 104%, respectively. Moreover, the EC50 in series [3] is above 30 µM.

In the case of `CCC[C@H](CC)Oc1ccc(C(C)(C)C)cc1NC(=O)c1nnn(-c2cc(C)c(OC)cc2OC)c1C` [M11, (S)—N-(5-(Tert-Butyl)-2-(Hexan-3-yloxy)Phenyl)-1-(2,4-Dimethoxy-5-Methylphenyl)-5-Methyl-1H-1,2,3-Triazole-4-Carboxamide], the IC50 in series [1] is above 30000 nM. For the same molecule, in series [2], the IC50 amounted to 0.045 ± 0.013 µM and the inhibition at 10 µM was 94%. Moreover, in series [3], the half-maximal effective concentration (EC50) stood at 0.0066 ± 0.0002 µM and the “Agonist (% activation at 10 μM)” value is “(92 ± 8)%”. In addition, in series [4], the IC50 stood at 65000 ± 28000 nM and the inhibition at 10 µM worked out at 15%.

Turning to `CCC[C@H](CC)Oc1ccc(C(C)(C)C)cc1NC(=O)c1nnn(-c2cc(Cl)c(Cl)cc2OC)c1C` [M12, (S)—N-(5-(Tert-Butyl)-2-(Hexan-3-yloxy)Phenyl)-1-(4,5-Dichloro-2-Methoxyphenyl)-5-Methyl-1H-1,2,3-Triazole-4-Carboxamide], the IC50 in series [1] stood at 65 ± 39 nM; in series [2] (setting [5]), 0.23 ± 0.1 µM; in series [4], 320 ± 20 nM. Further, the results for the inhibition at 10 µM in series [1], in series [2] and in series [4] were 97%, 90% and 99%, respectively. Besides, in series [3], the concentration for a half-maximal effect (EC50) is above 30 µM.
